Test results taken from ChEMBL document CHEMBL1156268, “Michael acceptor based antiplasmodial and antitrypanosomal cysteine protease inhibitors with unusual amino acids” (J Med Chem, 2010).
Activity calls are given as the source filed them. No cut-off for these calls is given here.

Experiments:
[1] = target: T1, Rhodesain (Trypanosoma brucei rhodesiense, UniProt Q95PM0); assay: Inhibition of Trypanosoma brucei rhodesiense recombinant rhodesain using high concentration of enzyme by standard fluorescence assay in presence of detergent
T1 sequence (Q95PM0 whole entry): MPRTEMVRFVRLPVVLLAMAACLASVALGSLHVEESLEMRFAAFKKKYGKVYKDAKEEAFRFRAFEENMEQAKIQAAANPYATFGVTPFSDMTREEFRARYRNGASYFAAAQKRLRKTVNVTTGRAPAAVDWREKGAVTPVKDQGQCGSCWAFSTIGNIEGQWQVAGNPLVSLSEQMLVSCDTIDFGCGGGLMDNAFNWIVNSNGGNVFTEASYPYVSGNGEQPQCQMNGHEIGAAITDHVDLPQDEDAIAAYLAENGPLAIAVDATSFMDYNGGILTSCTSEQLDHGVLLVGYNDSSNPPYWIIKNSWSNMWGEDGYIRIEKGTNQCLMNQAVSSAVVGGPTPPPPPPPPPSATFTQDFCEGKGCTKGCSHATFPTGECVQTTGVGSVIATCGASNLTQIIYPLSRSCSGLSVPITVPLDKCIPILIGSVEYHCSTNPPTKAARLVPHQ

[2] = system: Plasmodium falciparum; assay: Antiplasmodial activity against Plasmodium falciparum W2 by flow cytometry; assay type: functional, organism-based
[3] = target: T1, Rhodesain; assay: Inhibition of Trypanosoma brucei rhodesiense recombinant rhodesain using low concentration of enzyme by standard fluorescence assay in presence of detergent
[4] = target: T1, Rhodesain; assay: Inhibition of Trypanosoma brucei rhodesiense recombinant rhodesain using high concentration of enzyme by standard fluorescence assay
[5] = target: T1, Rhodesain; assay: (§1) Inhibition of Trypanosoma brucei rhodesiense recombinant rhodesain by standard fluorescence assay
[6] = target: Rhodesain (Trypanosoma brucei rhodesiense) (UniProt Q95PM0); assay: as §1; details: TDE = time-dependent effect
Chain of Rhodesain (Trypanosoma brucei rhodesiense) (Q95PM0 1-450): as the sequence (Q95PM0 whole entry) above

[7] = Inhibition of Plasmodium falciparum recombinant falcipain-2 using Cbz-Leu-Arg-AMC as substrate by standard fluorescence assay
[8] = Inhibition of Plasmodium falciparum recombinant falcipain-3 by standard fluorescence assay
[9] = system: Trypanosoma brucei brucei; assay: Antitrypanosomal activity against Trypanosoma brucei brucei; assay type: functional, organism-based
[10] = target: T1, Rhodesain; assay: Inhibition of Trypanosoma brucei rhodesiense recombinant rhodesain using low concentration of enzyme by standard fluorescence assay
[11] = system: Plasmodium falciparum; assay: Inhibition of Plasmodium falciparum recombinant falcipain-2 at 100 uM by standard fluorescence assay
[12] = target: Rhodesain (Trypanosoma brucei rhodesiense) (UniProt Q95PM0); assay: Inhibition of Trypanosoma brucei rhodesiense recombinant rhodesain at 100 uM by standard fluorescence assay
[13] = system: Plasmodium falciparum; assay: Antiplasmodial activity against Plasmodium falciparum W2 at 10 uM by flow cytometry; assay type: functional
[14] = system: Plasmodium falciparum; assay: Antiplasmodial activity against Plasmodium falciparum FCBR by flow cytometry; assay type: functional, organism-based; details: FCBR/Columbia
[15] = Cytotoxicity against mouse J774.1 cells; assay type: cell-based
[16] = Selectivity index, ratio of IC50 for mouse J774.1 cells to IC50 for Trypanosoma brucei brucei; assay type: toxicity; details: J774.1 cells versus Trypanosoma brucei brucei, read-out: Ratio IC50
[17] = Inhibition of Plasmodium falciparum recombinant falcipain-2 using Cbz-Phe-Arg-AMC as substrate by standard fluorescence assay
[18] = target: T1, Rhodesain; assay: Inhibition of Trypanosoma brucei rhodesiense recombinant rhodesain by standard fluorescence assay in presence of DTT

Row | SMILES | Ki [1] [µM] | IC50 [2] [µM] | Ki [3] [µM] | Ki [4] [µM] | Ki [5] [µM] | Time-dependent inhibition (qualitative) [6] | Ki [7] [µM] | Ki [8] [µM] | IC50 [9] [µM] | Ki [10] [µM] | inhibition [11] | inhibition [12] | inhibition at 10 µM [13] [%] | IC50 [14] [µM] | IC50 [15] [µM] | selectivity ratio [16] | Ki [17] [µM] | Ki [18] [µM]
1 | CCOC(=O)/C=C/[C@H](CCC(=O)NC(c1ccccc1)(c1ccccc1)c1ccccc1)NC(=O)[C@@H](NC(=O)OC(C)(C)C)c1ccccc1 | 0.4 | 3.9 | 0.3 | 0.64 | 0.47 | tde | 0.45 | 1.4 | 31 | 0.64 |  |  |  |  |  |  |  | 
2 | CCOC(=O)/C=C\C(=O)N[C@@H](CCC(=O)NC(c1ccccc1)(c1ccccc1)c1ccccc1)C(=O)OC |  |  |  |  |  |  |  |  | 25.5 |  | inactive | inactive | 30 |  |  |  |  | 
3 | CCOC(=O)/C=C/[C@@H](CCC(=O)NC(c1ccccc1)(c1ccccc1)c1ccccc1)NC(=O)[C@@H](NC(=O)OC(C)(C)C)c1ccccc1 |  |  |  |  | 0.14 | tde | 0.49 |  | 3.5 |  |  |  |  | 0.9 | 60 | 17 |  | 
4 | CCOC(=O)/C=C/CN[C@@H](CCC(N)=O)C(=O)N[C@H](C(=O)N[C@H](C(=O)N[C@@H](C)C(=O)OCc1ccccc1)C(C)C)C1CCCCC1 |  | 35.8 |  |  | 5.8 |  | 6.7 | 28.4 |  |  |  |  |  |  |  |  | 5.4 | 
5 | CCOC(=O)/C=C/[C@H](CCC(=O)NC(c1ccccc1)(c1ccccc1)c1ccccc1)NC(=O)OC(C)(C)C |  | 4 |  |  | 4.3 | tde | 1.8 | 8.2 | 2.8 |  |  |  |  |  | > 100 | > 36 |  | 3.6
